Laboratory results reported in ChEMBL document CHEMBL5291721, “A preclinical secondary pharmacology resource illuminates target-adverse drug reaction associations of marketed drugs” (Nat Commun, 2023).

What was measured:
Adenosine receptor A2a = Adenosine receptor A2a (Homo sapiens, UniProt P29274)
[1] = molecular target: T1, Alpha-2B adrenergic receptor (Homo sapiens, UniProt P18089)
T1 sequence (P18089 whole entry): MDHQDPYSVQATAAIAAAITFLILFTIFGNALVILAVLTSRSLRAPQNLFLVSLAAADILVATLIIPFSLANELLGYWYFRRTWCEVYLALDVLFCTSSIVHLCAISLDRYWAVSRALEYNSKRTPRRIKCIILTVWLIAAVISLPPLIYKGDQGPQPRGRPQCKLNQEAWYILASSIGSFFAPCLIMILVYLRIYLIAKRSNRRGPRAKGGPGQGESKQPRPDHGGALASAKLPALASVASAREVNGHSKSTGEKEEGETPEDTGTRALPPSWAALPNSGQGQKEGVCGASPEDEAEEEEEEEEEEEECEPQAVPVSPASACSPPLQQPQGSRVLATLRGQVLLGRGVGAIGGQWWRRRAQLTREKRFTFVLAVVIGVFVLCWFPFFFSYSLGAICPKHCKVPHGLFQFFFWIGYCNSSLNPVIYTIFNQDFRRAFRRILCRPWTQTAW

[2] = molecular target: T2, Gastrin/cholecystokinin type B receptor (Homo sapiens, UniProt P32239)
T2 sequence (P32239 whole entry): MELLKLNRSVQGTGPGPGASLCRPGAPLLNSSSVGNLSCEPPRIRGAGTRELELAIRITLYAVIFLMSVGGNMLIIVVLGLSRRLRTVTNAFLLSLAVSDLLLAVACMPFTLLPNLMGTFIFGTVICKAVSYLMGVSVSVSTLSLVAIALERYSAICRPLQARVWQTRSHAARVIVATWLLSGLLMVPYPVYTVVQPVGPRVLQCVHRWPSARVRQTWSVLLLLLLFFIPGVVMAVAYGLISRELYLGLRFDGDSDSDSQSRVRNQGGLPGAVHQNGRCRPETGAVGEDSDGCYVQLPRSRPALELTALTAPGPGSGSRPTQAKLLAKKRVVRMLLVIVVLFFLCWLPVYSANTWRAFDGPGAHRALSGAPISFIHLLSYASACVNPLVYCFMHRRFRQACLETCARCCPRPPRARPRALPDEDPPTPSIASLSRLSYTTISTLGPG

[3] = molecular target: Neuronal acetylcholine receptor subunit alpha-4 (Homo sapiens, UniProt P43681)
[4] = molecular target: 5-hydroxytryptamine receptor 2B (Homo sapiens, UniProt P41595); type: functional, cell-based
Glucocorticoid receptor = molecular target: T3, Glucocorticoid receptor (Homo sapiens, UniProt P04150)
T3 sequence (P04150 whole entry): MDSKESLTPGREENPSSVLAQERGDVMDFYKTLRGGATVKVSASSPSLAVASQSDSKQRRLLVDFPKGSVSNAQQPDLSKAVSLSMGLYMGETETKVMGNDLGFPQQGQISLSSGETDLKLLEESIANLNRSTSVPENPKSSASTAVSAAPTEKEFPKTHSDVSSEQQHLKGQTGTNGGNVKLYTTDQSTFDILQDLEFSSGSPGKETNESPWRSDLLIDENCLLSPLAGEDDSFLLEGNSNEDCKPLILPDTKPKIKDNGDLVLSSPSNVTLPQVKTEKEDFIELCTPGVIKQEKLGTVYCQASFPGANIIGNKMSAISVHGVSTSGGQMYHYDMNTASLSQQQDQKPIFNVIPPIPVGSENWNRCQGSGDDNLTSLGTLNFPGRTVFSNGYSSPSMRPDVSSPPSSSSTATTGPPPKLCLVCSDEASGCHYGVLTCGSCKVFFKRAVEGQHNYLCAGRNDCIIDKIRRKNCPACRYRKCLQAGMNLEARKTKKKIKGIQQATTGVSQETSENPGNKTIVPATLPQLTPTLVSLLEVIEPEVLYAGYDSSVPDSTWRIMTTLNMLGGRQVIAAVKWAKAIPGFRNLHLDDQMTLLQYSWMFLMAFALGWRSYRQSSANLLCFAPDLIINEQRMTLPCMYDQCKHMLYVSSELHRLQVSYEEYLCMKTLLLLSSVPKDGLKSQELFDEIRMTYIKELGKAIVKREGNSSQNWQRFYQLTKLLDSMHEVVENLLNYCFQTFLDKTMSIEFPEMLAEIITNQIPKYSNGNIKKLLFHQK

Thromboxane A2 receptor = molecular target: T4, Thromboxane A2 receptor (Homo sapiens, UniProt P21731)
T4 sequence (P21731 whole entry): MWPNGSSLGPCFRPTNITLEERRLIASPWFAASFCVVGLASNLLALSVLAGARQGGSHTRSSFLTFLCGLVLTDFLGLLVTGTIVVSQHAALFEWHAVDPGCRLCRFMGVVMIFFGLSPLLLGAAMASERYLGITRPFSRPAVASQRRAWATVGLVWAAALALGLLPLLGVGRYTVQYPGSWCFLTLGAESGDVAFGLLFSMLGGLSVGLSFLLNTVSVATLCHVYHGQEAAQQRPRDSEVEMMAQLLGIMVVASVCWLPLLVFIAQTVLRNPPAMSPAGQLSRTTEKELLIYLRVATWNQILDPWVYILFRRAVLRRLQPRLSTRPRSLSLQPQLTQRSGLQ

[5] = molecular target: Sodium-dependent dopamine transporter (Homo sapiens, UniProt Q01959)
Endothelin-1 receptor = molecular target: T5, Endothelin-1 receptor (Homo sapiens, UniProt P25101)
T5 sequence (P25101 whole entry): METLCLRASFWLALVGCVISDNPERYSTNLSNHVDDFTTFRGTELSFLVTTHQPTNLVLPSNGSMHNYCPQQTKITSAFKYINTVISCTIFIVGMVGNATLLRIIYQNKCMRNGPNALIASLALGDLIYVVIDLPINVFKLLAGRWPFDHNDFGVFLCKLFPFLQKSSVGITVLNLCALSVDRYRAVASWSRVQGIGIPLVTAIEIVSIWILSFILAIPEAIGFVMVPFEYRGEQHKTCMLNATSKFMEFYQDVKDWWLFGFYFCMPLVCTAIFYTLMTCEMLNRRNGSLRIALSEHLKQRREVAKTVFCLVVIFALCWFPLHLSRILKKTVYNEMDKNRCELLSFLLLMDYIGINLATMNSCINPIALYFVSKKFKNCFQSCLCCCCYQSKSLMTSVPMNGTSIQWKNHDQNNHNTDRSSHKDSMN

[6] = molecular target: 3',5'-cyclic-AMP phosphodiesterase 4D (Homo sapiens, UniProt Q08499); type: functional
Further: assay procedure not described here.

Sequence of Sodium-dependent dopamine transporter (Q01959 whole entry): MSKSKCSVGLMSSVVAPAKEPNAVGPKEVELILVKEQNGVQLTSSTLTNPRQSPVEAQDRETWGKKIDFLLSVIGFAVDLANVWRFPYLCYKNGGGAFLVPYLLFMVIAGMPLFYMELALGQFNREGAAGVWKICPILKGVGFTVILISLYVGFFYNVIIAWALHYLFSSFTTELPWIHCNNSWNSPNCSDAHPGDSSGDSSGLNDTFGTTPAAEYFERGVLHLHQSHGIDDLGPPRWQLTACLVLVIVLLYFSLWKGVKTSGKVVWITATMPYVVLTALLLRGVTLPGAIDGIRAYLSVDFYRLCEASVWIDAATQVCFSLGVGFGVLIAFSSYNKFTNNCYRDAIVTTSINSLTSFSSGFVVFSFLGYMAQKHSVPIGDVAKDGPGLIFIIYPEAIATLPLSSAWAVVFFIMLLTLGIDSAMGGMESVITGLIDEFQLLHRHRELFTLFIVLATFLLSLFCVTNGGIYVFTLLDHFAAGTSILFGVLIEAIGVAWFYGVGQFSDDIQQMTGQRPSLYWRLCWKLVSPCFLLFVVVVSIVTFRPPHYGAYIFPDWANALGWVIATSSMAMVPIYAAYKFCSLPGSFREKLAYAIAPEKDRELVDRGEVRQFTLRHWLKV
Sequence of 5-hydroxytryptamine receptor 2B (P41595 whole entry): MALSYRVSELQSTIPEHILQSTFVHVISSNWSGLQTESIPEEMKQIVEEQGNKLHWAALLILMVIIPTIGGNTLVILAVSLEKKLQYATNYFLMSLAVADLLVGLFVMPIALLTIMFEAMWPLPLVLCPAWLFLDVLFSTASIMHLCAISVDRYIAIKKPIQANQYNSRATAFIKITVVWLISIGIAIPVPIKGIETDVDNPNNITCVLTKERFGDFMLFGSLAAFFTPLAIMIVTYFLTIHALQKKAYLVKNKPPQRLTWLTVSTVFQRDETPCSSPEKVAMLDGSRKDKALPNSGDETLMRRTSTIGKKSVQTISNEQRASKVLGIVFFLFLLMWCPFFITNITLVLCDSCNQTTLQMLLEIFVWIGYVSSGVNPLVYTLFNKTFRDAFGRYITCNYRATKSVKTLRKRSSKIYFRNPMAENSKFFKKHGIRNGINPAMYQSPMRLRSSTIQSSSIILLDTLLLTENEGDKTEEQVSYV
Sequence of Neuronal acetylcholine receptor subunit alpha-4 (P43681 whole entry): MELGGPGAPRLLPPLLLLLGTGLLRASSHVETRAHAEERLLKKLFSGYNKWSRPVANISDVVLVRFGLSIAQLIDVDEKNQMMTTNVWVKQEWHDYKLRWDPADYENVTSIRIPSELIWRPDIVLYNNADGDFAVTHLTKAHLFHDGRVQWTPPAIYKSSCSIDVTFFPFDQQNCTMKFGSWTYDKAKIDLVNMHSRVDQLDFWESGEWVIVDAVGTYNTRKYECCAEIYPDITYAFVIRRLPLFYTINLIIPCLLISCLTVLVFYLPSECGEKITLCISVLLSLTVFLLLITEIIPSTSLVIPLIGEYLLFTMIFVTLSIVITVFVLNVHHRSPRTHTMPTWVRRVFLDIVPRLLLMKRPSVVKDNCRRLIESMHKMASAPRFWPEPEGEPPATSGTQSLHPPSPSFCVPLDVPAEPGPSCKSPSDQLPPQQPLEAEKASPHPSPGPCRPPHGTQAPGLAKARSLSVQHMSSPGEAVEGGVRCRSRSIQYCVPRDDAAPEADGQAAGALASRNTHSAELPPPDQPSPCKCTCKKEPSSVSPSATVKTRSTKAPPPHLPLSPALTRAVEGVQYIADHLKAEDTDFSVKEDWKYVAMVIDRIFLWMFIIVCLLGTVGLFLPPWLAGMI
Sequence of 3',5'-cyclic-AMP phosphodiesterase 4D (Q08499 whole entry): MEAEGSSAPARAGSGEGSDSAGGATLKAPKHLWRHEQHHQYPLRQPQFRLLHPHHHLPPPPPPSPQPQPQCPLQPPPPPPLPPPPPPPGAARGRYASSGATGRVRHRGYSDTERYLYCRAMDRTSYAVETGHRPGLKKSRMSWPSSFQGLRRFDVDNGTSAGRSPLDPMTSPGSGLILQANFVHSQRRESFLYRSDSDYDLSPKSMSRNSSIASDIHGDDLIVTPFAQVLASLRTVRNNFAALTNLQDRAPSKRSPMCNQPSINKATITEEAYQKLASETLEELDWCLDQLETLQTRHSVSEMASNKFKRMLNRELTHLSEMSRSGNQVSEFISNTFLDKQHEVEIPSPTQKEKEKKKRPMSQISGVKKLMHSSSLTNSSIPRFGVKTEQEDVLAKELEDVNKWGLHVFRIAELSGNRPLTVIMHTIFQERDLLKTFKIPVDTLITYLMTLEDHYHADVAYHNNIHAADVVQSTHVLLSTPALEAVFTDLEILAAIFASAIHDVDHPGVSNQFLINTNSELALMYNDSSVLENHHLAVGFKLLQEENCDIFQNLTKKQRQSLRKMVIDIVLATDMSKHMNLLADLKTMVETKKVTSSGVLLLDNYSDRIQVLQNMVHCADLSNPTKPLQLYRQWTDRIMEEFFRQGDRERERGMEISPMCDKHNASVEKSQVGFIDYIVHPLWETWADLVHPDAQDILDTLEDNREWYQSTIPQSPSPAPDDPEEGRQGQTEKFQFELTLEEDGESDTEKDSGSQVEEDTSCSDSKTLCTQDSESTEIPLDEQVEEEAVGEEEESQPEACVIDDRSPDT
Sequence of Adenosine receptor A2a (P29274 whole entry): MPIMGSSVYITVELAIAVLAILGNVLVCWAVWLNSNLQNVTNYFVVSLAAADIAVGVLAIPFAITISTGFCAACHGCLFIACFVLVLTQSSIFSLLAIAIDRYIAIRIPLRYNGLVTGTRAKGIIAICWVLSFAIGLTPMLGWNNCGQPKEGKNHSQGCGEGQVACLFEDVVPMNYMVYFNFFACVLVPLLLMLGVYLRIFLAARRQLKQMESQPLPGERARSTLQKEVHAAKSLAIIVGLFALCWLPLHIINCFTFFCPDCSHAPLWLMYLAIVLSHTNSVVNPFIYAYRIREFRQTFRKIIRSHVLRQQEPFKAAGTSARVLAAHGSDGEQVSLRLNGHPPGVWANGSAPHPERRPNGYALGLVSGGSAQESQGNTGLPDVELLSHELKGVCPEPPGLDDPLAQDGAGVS

Compound | AC50 (Adenosine receptor A2a) [µM] | AC50 [1] [µM] | AC50 [2] [µM] | AC50 [3] [µM] | AC50 [4] [µM] | AC50 (Glucocorticoid receptor) [µM] | AC50 (Thromboxane A2 receptor) [µM] | AC50 [5] [µM] | AC50 (Endothelin-1 receptor) [µM] | AC50 [6] [µM]
CN1CC(=O)N2[C@H](c3ccc4c(c3)OCO4)c3[nH]c4ccccc4c3C[C@@H]2C1=O | > 30 | > 10 | > 30 | > 10 | > 10 | > 30 | > 30 | > 30 |  | 
CCCC(CCC)C(=O)O[C@H]1C[C@H]2CC[C@@H](C1)[N+]2(C)C [ANISOTROPINE] | > 30 | > 30 | > 30 | 26 | > 30 |  | > 30 | > 30 | > 30 | > 30
NC(CO)C(=O)NNCc1ccc(O)c(O)c1O (stereo not given) [BENSERAZIDE] | > 30 | > 10 | > 30 | > 10 | > 10 |  | > 30 | > 30 | > 30 | > 30
CCCCCOC(=O)Nc1nc(=O)n([C@@H]2O[C@H](C)[C@@H](O)[C@H]2O)cc1F [CAPECITABINE] | > 30 | > 30 | > 30 | > 30 | > 30 |  |  | > 30 | > 30 | > 30
COC(=O)[C@H]1[C@@H](OC(=O)c2ccccc2)C[C@@H]2CC[C@H]1N2C [COCAINE] | > 30 | > 30 | > 30 | > 30 | > 30 |  | > 30 |  | > 30 | > 30
[H]/N=C(/N)c1ccc(NCc2nc3cc(C(=O)N(CCC(=O)O)c4ccccn4)ccc3n2C)cc1 [DABIGATRAN] | > 30 | > 30 | > 30 | > 30 | > 30 |  |  | > 30 | > 30 | > 30
CCCCOc1cc(C(=O)NCCN(CC)CC)c2ccccc2n1 [DIBUCAINE] | > 30 | > 10 | > 30 | > 30 | > 10 | > 10 | > 30 | > 10 |  | > 30
O=C1CN=C(c2ccccc2)c2cc(Cl)ccc2N1CC(F)(F)F [HALAZEPAM] | > 30 | > 30 | > 30 | > 30 | > 30 | > 30 |  | > 30 | > 30 | > 30
CC(C)[N+](C)(CCC(C(N)=O)(c1ccccc1)c1ccccc1)C(C)C [ISOPROPAMIDE] | > 10 | > 10 |  | > 10 | > 10 | > 10 | > 10 | > 10 |  | > 30
COC(=O)C1=C(C)NC(C)=C(C(=O)OC(C)C)C1c1cccc2nonc12 (stereo not given) [ISRADIPINE] | > 30 | > 30 | 34.1 | > 30 | > 10 | 15.1 | 20.1 | 26 |  | 9
